Read-outs that look alike come from different tables or passages of the source.
Assay type: physicochemical
Experimental: The stability of sample was tested by storing the samples at 40° C./75% relative humidity (RH) and 25° C./60% RH for 6 months. The stability of samples was tested by PXRD, HPLC and water content was measured by Karl Fischer method.

O=C(NCc1c(F)cc(F)cc1F)c1cn2c(c(O)c1=O)C(=O)N1[C@H]3CC[C@H](C3)O[C@@H]1C2 [Form HN-1, sodium (2R,5S,13aR)-7,9-dioxo-10-((2,4,6-trifluorobenzyl)carbamoyl)-2,3,4,5,7,9,13,13a-octahydro-2,5-methanopyrido [1′,2′:4,5]pyrazino[2,1-b][1,3] oxazepin-8-olate]
stability (PXRD pattern, water content, purity after storage): physically and chemically stable
Physical form (as assessed by PXRD) (4 month, 25° C./60% RH): Crystalline
Purity by HPLC (4 month, 25° C./60% RH): 99.78%
Water content by Karl Fischer method (4 month, 25° C./60% RH): 3.7%
Physical form (as assessed by PXRD) (4 month, 40° C./75% RH): Crystalline
Purity by HPLC (4 month, 40° C./75% RH): 99.78%
Water content by Karl Fischer method (4 month, 40° C./75% RH): 3.6%
Physical form (as assessed by PXRD) (5 month, 25° C./60% RH): Crystalline
Purity by HPLC (5 month, 25° C./60% RH): 99.78%
Water content by Karl Fischer method (5 month, 25° C./60% RH): 3.9%
Physical form (as assessed by PXRD) (5 month, 40° C./75% RH): Crystalline
Purity by HPLC (5 month, 40° C./75% RH): 99.77%
Water content by Karl Fischer method (5 month, 40° C./75% RH): 3.9%
Physical form (as assessed by PXRD) (6 month, 25° C./60% RH): Crystalline
Purity by HPLC (6 month, 25° C./60% RH): 99.78%
Water content by Karl Fischer method (6 month, 25° C./60% RH): 3.8%
Physical form (as assessed by PXRD) (6 month, 40° C./75% RH): Crystalline
Purity by HPLC (6 month, 40° C./75% RH): 99.78%
Water content by Karl Fischer method (6 month, 40° C./75% RH): 3.8%
Physical form (as assessed by PXRD) (Initial): Crystalline
Purity by HPLC (Initial): 99.82%
Water content by Karl Fischer method (Initial): 4.2%

Reference: patent publication US12037343B2, “Process for the preparation of sodium (2r,5s,13ar)-7,9-dioxo-10-((2,4,6,-trifluorobenzyl)carbamoyl)-2,3,4,5,7,9,13,13A-octahydro-2,5-methanopyrido[1′,2′:4,5]pyrazino[2,1-B] [1,3] oxazepin-8-olate and its polymorphic form” (Honour Lab Limited, priority 2018, dated 2024)
